The values below come from US8093385B2, “Leukotriene B4 inhibitors” (Hoffmann-La Roche Inc., priority 2007, dated 2012).

Counter-ions that a name gives are not always drawn.

The test system of one assay is BLT1 and BLT2 receptors. Nature of the assay: Ca2+ Flux Assay for LTB4 Antagonist Assay. Type of assay: cell-based, Human. The settings on record: inhibition of LTB4-induced Ca2+ flux (FLIPR), Retinoic Acid induced HL-60 cells endogenously expressing BLT1 and BLT2. The method, then:
Ca^2+ Flux Assay for LTB4 Antagonist Assay
Seventy two hours prior to experiment cells are counted using ViaCount reagent, centrifuged and resuspended at 2.0×10^5 cells /ml density with the complete growth media containing 1 μM Retinoic Acid (Sigma).
On a day of the experiment loading buffer (Calcium-3 Assay Kit, Molecular Devices) was prepared by dissolving the contents of one vial (Express Kit) into 500 ml Hank's Balanced Salt Solution containing 20 mM HEPES and 5 mM probenecid. Equal volume of the loading buffer was mixed with the replacement buffer (Hank's Balanced Salt Solution containing 20 mM HEPES, 0.05% BSA and 5 mM probenecid). Retinoic Acid induced HL-60 cells were counted using ViaCount reagent, centrifuged and resuspended at 2.0×10^6 cells /ml density with the loading buffer/replacement buffer, dispensed into 384 well black/clear microplates (Falcon)(25 μl/well) and placed in a 37° C./5% CO2 incubator for 1 hour.
During the incubation, test compounds were prepared at 6× the desired concentration in HBSS/20 mM HEPES/0.05% BSA as well as LTB4 (Biomol) was prepared at 2.2× concentration in HBSS/20 mM HEPES/0.5% BSA buffer.
After the incubation, both the cell and compound plates were brought to the FLIPR and 5 μl of the diluted compounds were transferred to the cell plates by the FLIPR. Plates were then incubated for 30min at room temperature. After the ½ hour incubation, plates were returned to the FLIPR and 25 μl of 2.2× LTB4 was added to the cell plates. During the assay, fluorescence readings were taken simultaneously from all 384 wells of the cell plate every 1.5 seconds. Five readings were taken to establish a stable baseline, then 25 μl (LTB4) of sample was rapidly and simultaneously added to each well of the cell plate. The fluorescence was continuously monitored before, during and after sample addition for a total elapsed time of 100 seconds. Responses (increase in peak fluorescence) in each well following agonist addition was determined. The initial fluorescence reading from each well, prior to ligand stimulation, was used a zero baseline value for the data from that well. The responses are expressed as % inhibition of the neutral control (neutral control: wells that received buffer plus DMSO but no test compound).
In general terms: Calcium assays in cells follow changes in intracellular calcium, usually with a dye or a luminescent sensor.
Take `O=C(O)CCCOc1cccc(CCCCCCOc2cc(-c3cccc(F)c3)cc(-c3ccc4c(c3)OCO4)c2)c1CCC(=O)O` [Example 17, 4-{3-[6-(5-Benzo[1,3]dioxol-5-yl-3′-fluoro-biphenyl-3-yloxy)-hexyl]-2-(2-carboxy-ethyl)-phenoxy}-butyric acid bis-sodium salt]: 1.19 nM corresponded to half-maximal inhibition (IC50).

The same assay, now with this note: inhibition of LTB4-induced Ca2+ flux (FLIPR), Retinoic Acid induced HL-60 cells endogenously expressing BLT1 and BLT2; read-out: IC50.
Turning to `CN(C)c1ccc(-c2cc(OCCCCCCc3cccc(OCCCC(=O)O)c3CCC(=O)O)cc(-c3ccc(Cl)c(F)c3)c2)cc1` [Example 63, 4-{2-(2-Carboxy-ethyl)-3-[6-(4-chloro-4″-dimethylamino-3-fluoro-[1,1′;3′,1″]terphenyl-5′-yloxy)-hexyl]-phenoxy}-butyric acid], the IC50 (in general, the concentration at which inhibition is half-maximal) was 59.8 nM.
Regarding `Cc1cc(-c2cc(OCCCCCCc3cccc(OCCCC(=O)O)c3CCC(=O)O)cc(-c3ccc(N(C)C)cc3)c2)ccc1F` [Example 65, 4-{2-(2-Carboxy-ethyl)-3-[6-(4″-dimethylamino-4-fluoro-3-methyl-[1,1′;3′,1″]terphenyl-5′-yloxy)-hexyl]-phenoxy}-butyric acid], the IC50 is 0.47 nM.
Still for that read-out and setting: the value for `O=C(O)CCCOc1cccc(CCCCCC#Cc2cc(-c3ccccc3)cc(-c3ccccc3)c2)c1CCC(=O)O` [Example 48, 4-[2-(2-Carboxy-ethyl)-3-(7-[1,1′;3′,1″]terphenyl-5′-yl-hept-6-ynyl)-phenoxy]-butyric acid] was 2.69 nM; that for `O=C(O)CCCOc1cccc(CCCCCCOc2cc(-c3ccnc(F)c3)cc(-c3ccnc(F)c3)c2)c1CCC(=O)O` [Example 3, 4-[3-{6-[3,5-Bis-(2-fluoro-pyridin-4-yl)-phenoxy]-hexyl}-2-(2-carboxy-ethyl)-phenoxy]-butyric acid] was 0.17 nM.
As for `O=C(O)CCCOc1cccc(CCCCCCOc2cc(-c3ccccc3)cc(-c3ccccc3F)c2)c1CCC(=O)O` [Example 97, 4-{2-(2-Carboxy-ethyl)-3-[6-(2-fluoro-[1,1′;3′,1″]terphenyl-5′-yloxy)-hexyl]-phenoxy}-butyric acid], the 50% inhibitory concentration (IC50) turned out to be 0.25 nM.
Regarding `O=C(O)CCCOc1cccc(CCCCCCOc2cc(-c3ccsc3)cc(-c3ccnc(Cl)c3)c2)c1CCC(=O)O` [Example 15], the IC50 is 0.57 nM.
On to `O=C(O)CCCOc1cccc(CCCCCCOc2cc(-c3ccncc3)cc(-c3ccc4c(c3)OCCO4)c2)c1CCC(=O)O` [Example 24, 4-(2-(2-Carboxy-ethyl)-3-{6-[3-(2,3-dihydro-benzo[1,4]dioxin-6-yl)-5-pyridin-4-yl-phenoxy]-hexyl}-phenoxy)-butyric acid], for which the IC50 is 0.23 nM.
Turning to `O=C(O)CCCOc1cccc(CCCCCCOc2cc(-c3ccsc3)cc(-c3ccc4c(c3)OCO4)c2)c1CCC(=O)O` [Example 12, 4-{3-[6-(3-Benzo[1,3]dioxol-5-yl-5-thiophen-3-yl-phenoxy)-hexyl]-2-(2-carboxy-ethyl)-phenoxy}-butyric acid], the IC50 was determined as 0.21 nM.
The same measure, in the same setting: in the case of `O=C(O)CCCOc1cccc(CCCCCCOc2cc(-c3cncnc3)cc(-c3ccsc3)c2)c1CCC(=O)O` [Example 16, 4-{2-(2-Carboxy-ethyl)-3-[6-(3-pyrimidin-5-yl-5-thiophen-3-yl-phenoxy)-hexyl]-phenoxy}-butyric acid] it was 0.39 nM; in that of `O=C(O)CCCOc1cccc(CCCCCCOc2cc(-c3ccncc3)cc(-c3cccc(F)c3)c2)c1CCC(=O)O` [Example 18, 4-{2-(2-Carboxy-ethyl)-3-[6-(3′-fluoro-5-pyridin-4-yl-biphenyl-3-yloxy)-hexyl]-phenoxy}-butyric acid], 0.18 nM.
Consider `O=C(O)CCCOc1cccc(CCCCCCOc2cc(-c3ccccn3)cc(-c3ccccn3)c2)c1CCC(=O)O` [Example 26, 4-(2-(2-Carboxy-ethyl)-3-{6-[3,5-di-pyridin-2-yl-phenoxy]-hexyl}-phenoxy)-butyric acid], for which the IC50 amounted to 0.97 nM.
On the same count and under the same terms, the value for `O=C(O)CCCOc1cccc(CCCCCCOc2cc(-c3ccsc3)cc(-c3ccsc3)c2)c1CCC(=O)O` [Example 56, 4-{2-(2-Carboxy-ethyl)-3-[6-(3,5-di-thiophen-3-yl-phenoxy)-hexyl]-phenoxy}-butyric acid] was 0.58 nM; that for `O=C(O)CCCOc1cccc(CCCCCCOc2cc(-c3cccnc3)cc(-c3cccnc3)c2)c1CCC(=O)O` [Example 4, 4-{2-(2-Carboxy-ethyl)-3-[6-(3,5-di-pyridin-3-yl-phenoxy)-hexyl]-phenoxy}-butyric acid] was 0.64 nM.
In the case of `O=C(O)CCCOc1cccc(CCCCCCOc2cc(-c3ccccc3)cc(-c3ccsc3)c2)c1CCC(=O)O` [Example 13, 4-{2-(2-Carboxy-ethyl)-3-[6-(5-thiophen-3-yl-biphenyl-3-yloxy)-hexyl]-phenoxy}-butyric acid], the IC50 was found to be 0.36 nM.
For `COc1ccc(-c2cc(OCCCCCCc3cccc(OCCCC(=O)O)c3CCC(=O)O)cc(-c3ccc(OC)cc3)c2)cc1` [Example 88, 4-{2-(2-Carboxy-ethyl)-3-[6-(4,4″-dimethoxy-[1,1′;3′,1″]terphenyl-5′-yloxy)-hexyl]-phenoxy}-butyric acid], the concentration for half-maximal inhibition (IC50) came out at 0.61 nM.
Take `O=C(O)CCCOc1cccc(CCCCCCOc2cc(-c3ccccc3)cc(-c3ccccc3)c2)c1CCC(=O)O` [Example 2, 4-{2-(2-Carboxy-ethyl)-3-[6-([1,1′,3,1″]terphenyl-5′-yloxy)-hexyl]-phenoxy}-butyric acid]: the IC50 stood at 0.21 nM.
On the same count and under the same terms, in the case of `O=C(O)CCCOc1cccc(CCCCCCOc2cc(-c3ccncc3)cc(-c3ccc4c(c3)OCO4)c2)c1CCC(=O)O` [Example 20, 4-{3-[6-(3-Benzo[1,3]dioxol-5-yl-5-pyridin-4-yl-phenoxy)-hexyl]-2-(2-carboxy-ethyl)-phenoxy}-butyric acid] it was 0.21 nM; in that of `O=C(O)CCCOc1cccc(CCCCCCOc2cc(-c3ccccc3)cc(-c3ccc(OC(F)(F)F)cc3)c2)c1CCC(=O)O` [Example 70], 0.58 nM; in that of `O=C(O)CCCOc1cccc(CCCCCCOc2cc(-c3ccncc3)cc(-c3ccsc3)c2)c1CCC(=O)O` [Example 14, 4-{2-(2-Carboxy-ethyl)-3-[6-(3-pyridin-4-yl-5-thiophen-3-yl-phenoxy)-hexyl]-phenoxy}-butyric acid], 0.2 nM.
Consider `O=C(O)CCCOc1cccc(CCCCCCNc2cc(-c3ccsc3)cc(-c3ccsc3)c2)c1CCC(=O)O` [Example 35, 4-{2-(2-Carboxy-ethyl)-3-[6-(3,5-di-thiophen-3-yl-phenylamino)-hexyl]-phenoxy}-butyric acid], for which the IC50 is 99.1 nM.
With `Cc1cc(C(F)(F)F)c(-c2cc(OCCCCCCc3cccc(OCCCC(=O)O)c3CCC(=O)O)cc(-c3ccsc3)c2)c(=O)n1C` [Example 28, 4-(2-(2-Carboxy-ethyl)-3-{6-[3-(1,6-dimethyl-2-oxo-4-trifluoromethyl-1,2-dihydro-pyridin-3-yl)-5-thiophen-3-yl-phenoxy]-hexyl}-phenoxy)-butyric acid], the IC50 was 99.4 nM.
`O=C(O)CCCOc1cccc(CCCCCCCc2cc(-c3ccc4c(c3)OCO4)cc(-c3ccc4c(c3)OCO4)c2)c1CCC(=O)O` [Example 52, 4-[3-[7-(3,5-Bis-benzo[1,3]dioxol-5-yl-phenyl)-heptyl]-2-(2-carboxy-ethyl)-phenoxy]-butyric acid]: the IC50 was 42.5 nM.
`O=C(O)CCCOc1cccc(CCCCCCOc2cc(-c3ccncc3)cc(-c3ccncc3)c2)c1CCC(=O)O` [Example 1, 4-{2-(2-Carboxy-ethyl)-3-[6-(3,5-di-pyridin-4-yl-phenoxy)-hexyl]-phenoxy}-butyric acid]: the IC50 came to 0.07 nM.
On the same count and under the same terms, in the case of `O=C(O)CCCOc1cccc(CCCCCCSc2cc(-c3ccccc3)cc(-c3ccccc3)c2)c1CCC(=O)O` [Example 7, 4-{2-(2-Carboxy-ethyl)-3-[6-([1,1′;3′,1″]terphenyl-5′-ylsulfanyl)-hexyl]-pheoxy}-butyric acid] it was 75 nM.
